Assay results published in patent US20230067926A1, “SYSTEMS AND METHODS FOR MONITORING PLATELET ACTIVATION” (The Regents of the University of Michigan, priority 2021, published 2023).

Experiments:
[1] = test system: collagen and epinephrine stimulated human platelets; assay: cells; conditions: Platelet, read-out: IC50 of inhibition of collagen-stimulated platelet activation
Procedure: Fluorescence-activated Cell Sorting Analysis. […] Collagen (40 μg/ml) was then added (4 μl) and incubated for 2 min at room temperature in all tubes. Platelet activation was measured by using 20 μl of the anti-9F9 antibody-FITC and 10 μl of the constitutive platelet marker, anti-CD61-PE (Phycierythrin). As a control for the anti-9F9 antibody, 10 μl of the isotype control, anti-mouse IgG1-FITC, was used with 10 μl of anti-CD61-PE in a separate tube. The antibodies were incubated at room temperature in the dark for 15 minutes. After the incubation, 700 μl of 1% formalin/dPBS was added to each tube and stored at 4° C. for up to 24 hrs post fixing until ready to run the fluorescence-activated cell sorting (FACS) analysis on a FACSCalibur flow cytometer (Beckton Dickenson San Jose, Calif.). CellQuest software (Beckton Dickenson San Jose, Calif.) was employed for the data analysis.
Cell populations were identified for data collection by their log forward scatter (FSC) and log side scatter (SSC) light profiles. […] Mean fluorescence intensity (MFI) of the anti-9F9 immunostaining was quantitated by a FITC (FL1) versus PE (FL2) log plot analysis. […] The adjusted WI was expressed as the geometric mean channel fluorescence minus the appropriate isotype control. The platelet reactivity index (PRI) was calculated by the following equation: […]

[2] = test system: activated platelets in whole blood; assay: PDA liposome-9F9 microarray detection of activated platelets in whole blood; assay type: cell-based, human
Procedure: To fabricate the PDA liposome Microarray, the liposomes were covalently immobilized on amine-modified glass slides through the amine-epoxy chemistry. 0.5 mM PDA-epoxy liposome solution was spotted on amine-coated glass slides with a manual microarrayer (VP 475, V&P scientific, INC) and was incubated at 5° C. for 24 hrs to prevent fast drying of the spotted solution. After removing the unbound liposomes by rinsing with 5 mM of pH 8 HEPES buffer, the PDA liposome-spotted slides were incubated with 0.06 mg/ml of 9F9 antibody in 5 mM of pH 8 HEPES buffer for 1 hr. After removing the unbound antibodies by rinsing with 5 mM of pH 8 HEPES buffer. […]
Detection of Activated Platelet with PDA Liposome Microarray. […] After 20 mins of incubation, fluorescence microscope images were obtained on Olympus BX 71 microscope equipped with a mercury lamp and a cut-off filter of 540 nm excitation and 600 nm emission. For fluorescence signal intensity measurement, the fabricated PDA liposome-9F9 microarray was placed on top of a 96-well plate and the combined substrates were inserted into a plate reader. Fluorescence emission intensities at 634 nm of total 120 microarray spots from three different devices were individually measured by using the excitation wavelength of 548 nm. […]

Row | Compound | IC50 [1] [pM] | limit of detection of Tirofiban in the sample (fluorescence signal decrease) ([2]; whole blood with collagen, 20 mins incubation, PDA microarray fluorescence (FIG. 3)) [µM] | red fluorescence intensity with added collagen relative to device without it ([2]; whole blood samples with and without 40 mg/ml of collagen, 20-min incubation (FIG. 2)) [times]
1 | CCCCS(=O)(=O)N[C@@H](Cc1ccc(OCCCCC2CCNCC2)cc1)C(=O)O [Tirofiban] | ~1.5 | 0.16 | 
2 | collagen |  |  | 2.8
